Measurements: article PMC5433701, “SPR-based fragment screening with neurotensin receptor 1 generates novel small molecule ligands” (PLoS ONE, 2017)
Where two headings read alike, the source gives them in different places.

Columns and labels:
pKa determination = assay type: physicochemical
NTS1-H4 = target: NTS1-H4; design: method as in PMID 25064156; settings: competition with fluorescently labeled NT8-13, NTS1-H4-coated beads; cited from earlier work
NTS1-H4 receptor = assay: SPR competition of NT8-13 and SR142948 on NTS1-H4 receptor; assay type: binding, rat; settings: 100 nM NT8-13 then 100 nM SR142948 injected subsequently
Protocol: Supplementary file pone.0175842.s003.pdf: S3 Fig Competition of neurotensin peptide NT8-13 and antagonist SR142948 on the NTS1-H4 receptor. NT8-13 agonist (saturating concentration of 100 nM) and antagonist SR142948 (saturating concentration of 100 nM) were injected subsequently over the NTS1-H4 receptor-coated surface. No binding of SR142948 was detected on the NTS1-H4 receptor that had been saturated previously by agonist NT8-13 peptide, indicating complete occupancy of the binding site and binding to the same binding site. (PDF) Click here for additional data file.

rat NTS1-H4 receptor = assay: SPR kinetic binding of reference ligands on captured NTS1-H4 receptor
Protocol: All SPR binding experiments were performed on Biacore® 3000, T200 and Biacore 4000 (GE Healthcare, Uppsala, Sweden) instruments at 15°C in a running buffer composed of 20 mM Tris, 150 mM NaCl, 0.01% (v/v) L-MNG, 2% (v/v) DMSO, pH 8.0, at flow of 30 μl·min^-1. Running buffer was prepared freshly every day and filtered with Express™Plus Steritop filters with 0.22 μm cut off (Millipore, Billerica, MA, USA) and degassed prior to SPR analysis. Dose-response experiments for peptides were performed in the buffer without DMSO, as the analyzed peptide concentration range was in nM range and it was not necessary to work with DMSO in the running buffer to correct for the resonance signals. […]
All SPR data processing and analyses were performed using BiaEvaluation Software (version 1.0 (Biacore 4000) and 4.1 (Biacore 3000)), and GraphPadPrism (version 6.04). All monitored binding resonance signals were corrected regarding DMSO solvent signals and further double-referenced, i. e., signals monitored on the binding active channel were subtracted by signals from the reference channel (sensor surface not modified with any reference protein) and by buffer signals. […]

Compound COc1ccc(Cc2nn[nH]n2)cc1 [fragment 4] has a pKa (pKa determination; read-out: pKa1 ± σ) of 4.86 ± 0.08.

For SR142948, the Ki (NTS1-H4) is listed as 0.5 nM, the “binding to NTS1-H4 receptor previously saturated by NT8-13” value (NTS1-H4 receptor) is listed as “No binding” and the Kd (rat NTS1-H4 receptor) is listed as 0.4 nM.

For COc1cccc(S(=O)(=O)c2ccccc2CC(N)=O)c1 [fragment 2], the “pKa1 ± σ” value (pKa determination) was “out of range”.

For Nc1nnc2c(C(F)(F)F)nc3ccccc3n12 [fragment 1], the pKa (pKa determination; read-out: pKa1 ± σ) was 2.14 ± 0.04.

In the case of COc1ccc(N(C(C)C)S(N)(=O)=O)cc1 [fragment 3], the pKa (pKa determination; read-out: pKa1 ± σ) is reported as 6.49 ± 0.04 and the pKa (pKa determination; read-out: pKa2) is reported as 11.04 ± 0.08.
